Patent publication US8613931B2, “Compounds for treating beta-amyloidoses” (Affiris AG, priority 2008, dated 2013)
Square brackets hold non-standard residues; d marks the D form. Ends that are not written are not given here. pGlu = O=C1CC[C@@H](C(=O)O)N1

How the values were obtained:
[1] = test system: monoclonal antibody MV-003; test: In vitro binding assay (ELISA), parental antibody MV-003; design: species or system BalbC mice; details: peptide-BSA on ELISA plate; OD halfmax, dilution factor 1:X of parental AB MV-003
Procedure: 1. In vitro binding assay (ELISA)
Peptides derived from Phage Display as well as variants thereof were coupled to BSA and bound to ELISA plates (1 μM; as indicated in the respective figures) and subsequently incubated with the monoclonal antibody that was used for the screening procedure to analyse binding capacity of identified peptides.

[2] = test system: monoclonal antibody MV-003; test: In vitro inhibition assay (ELISA), MV-003 binding to original epitope; design: species or system BalbC mice; details: OD at 10 μg peptide compared to original peptide
Procedure: 2. In vitro inhibition assay (ELISA)
Different amounts of peptides (concentrations ranging from 10 μg to 0.08 μg; serial dilutions), derived from Phage Display were incubated with the monoclonal antibody that was used for the screening procedure. Peptides diminishing subsequent binding of the antibody to the original epitope coated on ELISA plates were considered as inhibiting in this assay.

p4371 = test: Mimotope vaccination, serum reactivity against p4371; type: in vivo, C57/bl6 mice; details: sera of mice s.c. immunized with 30 μg peptide coupled to KLH, alum
Procedure: (§1) Inhibiting as well as non-inhibiting peptides were coupled to KLH and injected into mice (wildtype C57/Bl6 mice; subcutaneous injection into the flank) together with an appropriate adjuvant (aluminium hydroxide). Animals were vaccinated 3-6 times in biweekly intervals and sera were taken biweekly as well. Titers to injected peptides, as well as to an irrelevant peptide were determined with every serum. Furthermore, titers against the recombinant human Aβ protein, and against original peptides were determined respectively. In general sera were analysed by reaction against peptides coupled to Bovine Serum Albumin (BSA) and recombinant full length proteins which were immobilised on ELISA plates. Titers were determined using anti mouse IgG specific antibodies. For detailed results see FIGS. 6, 7 and 8 respectively.
(§2) Female C57/bl6 mice, 5-6 mice per group, were subcutaneously immunized with 30 μg peptide coupled to KLH. Control groups were administered original epitope-KLH conjugates respectively. As adjuvant alum was used (always 1 mg per mouse). […] The in vitro ELISA assay to determine the antibody titer was performed with sera of single mice after each vaccination in a two week interval (see FIGS. 6 and 7 respectively). The wells of the ELISA plate were coated with mimotope-BSA conjugate and an irrelevant peptide-BSA conjugate (negative control). […]

[3] = test system: full length and/or truncated and modified forms of Aβ; test: In vivo characterisation of mimotopes: detection of Aβ/truncated/modified forms; design: species or system C57/bl6 mice; key: +: All peptides listed in Table 5 mount specific immune reactions against full length and/or truncated and modified forms of Aβ or fragments thereof; details: MV-003 derived mimotopes; mimotope vaccination
Procedure: as §1
Female C57/bl6 mice, 5-6 mice per group, were subcutaneously immunized with 30 μg peptide coupled to KLH. Control groups were administered original epitope-KLH conjugates respectively. As adjuvant alum was used (always 1 mg per mouse). […] The in vitro ELISA assay to determine the antibody titer was performed with sera of single mice after each vaccination in a two week interval (see FIGS. 6 and 7 respectively). The wells of the ELISA plate were coated with mimotope-BSA conjugate and an irrelevant peptide-BSA conjugate (negative control). The positive control was performed by reaction of the parental antibody with the respective mimotope-BSA conjugate. The detection was performed with anti-mouse IgG. Additionally, recombinant proteins were immobilised on ELISA plates and sera reacted accordingly. FIGS. 6 to 8 show representative examples for assays used to characterise mimotopes in vivo.

Tg2576 AD mouse model = test: Area occupied by amyloid plaques in Tg2576 mice after mimotope vaccination; type: in vivo; details: Tg2576, 6 s.c. injections at monthly intervals, peptide-KLH conjugate with ALUM
p4373 = test: Mimotope vaccination, serum reactivity against p4373; type: in vivo, C57/bl6 mice; details: sera of mice s.c. immunized with 30 μg peptide coupled to KLH, alum
Procedure: as §1, §2

IRWDTSLC [p4728]
Binding Capacity [1]: 3 (strong binding :>60000)
Inhibition Capacity [2]: 2 (strong inhibition (as original epitope; OD of 10 μg peptide below 5 times of original peptide))

IRWDGGC [p4793]
Inhibition Capacity [2]: 1 (Weaker than original epitope (OD of 10 μg peptide below 12 times of original peptide))

p(E)FRHDS-C ([pGlu]FRHDSC) [p4373]
immune response against p4371 (p4371): mount relevant titers

IRYDAPLC [p4397]
Inhibition Capacity [2]: 1 (Weaker than original epitope (OD of 10 μg peptide below 12 times of original peptide))
Detection of Aβ/truncated/modified forms [3]: +

IRYDMAGC [p4399]
Detection of Aβ/truncated/modified forms [3]: +

IRWDTPC [p4395]
Inhibition Capacity [2]: 1 (Weaker than original epitope (OD of 10 μg peptide below 12 times of original peptide))
average area occupied by amyloid plaques (Tg2576 AD mouse model; mAb 3A5 staining, control group 0.35%): 0.21%
reduction of area occupied by amyloid plaques following mimotope treatment (Tg2576 AD mouse model; versus control group): 38%
Detection of Aβ/truncated/modified forms [3]: +

EFRHDS-C (EFRHDSC) [p4371]
immune response against p4373 (p4373): mount relevant titers

IRWDGC [p4792]
Inhibition Capacity [2]: 1 (Weaker than original epitope (OD of 10 μg peptide below 12 times of original peptide))

IRWDQPC [p4756]
Binding Capacity [1]: 3 (strong binding :>60000)
Inhibition Capacity [2]: 1 (Weaker than original epitope (OD of 10 μg peptide below 12 times of original peptide))

VRWDVYPC [p4396]
Detection of Aβ/truncated/modified forms [3]: +
